# Assay results from ChEMBL document CHEMBL4665834 (J Med Chem, 2020).
# Tests used:
# [1] = Toxicity in Beagle dog up to 1 g/kg/day, po administered for 14 days; assay type: organism-based, Canis lupus familiaris; details: in vivo, 1000 mg/kg, 336 h, time 14 day
# [2] = Terminal half life in Wistar rat at 1 mg/kg, iv administered as bolus dose by LC-MS/MS analysis; assay type: ADME, organism-based; details: in vivo, read-out: beta t1/2 (converted)
# [3] = target: Prostaglandin F2-alpha receptor (Rattus norvegicus, UniProt P43118); test: Antagonist activity at rat FPR stably expressed in CHO cells assessed as inhibition of PGF2alpha-induced calcium flux preincubated for 10 mins followed by PGF2alpha stimulation and measured for 120 secs by fluo-8 AM dye based fluorescence assay; assay type: cell-based
# [4] = Apparent permeability in human Caco-2 cells measured after 2 hrs by HPLC analysis; assay type: ADME, cell-based
# [5] = Solubility of compound in 0.1 M HCl using crystalline form of sample; assay type: physicochemical
# [6] = Protein binding in pooled rat plasma assessed as unbound fraction incubated for 6 hrs by LC-MS/MS analysis based equilibrium dialysis method; assay type: ADME, cell-free
# [7] = Drug metabolism in dog hepatocytes assessed as glucuronidation at 1 uM measured after 1 to 4 hrs by LC-MS/MS analysis; assay type: ADME, cell-based, Canis lupus familiaris, Hepatocyte; details: time 1-4 hrs
# [8] = Volume of distribution at steady state in Balb/c mouse at 1 mg/kg, iv administered as bolus dose or 3 mg/kg, po administered via gavage by LC-MS/MS analysis; assay type: ADME, organism-based; details: in vivo, read-out: Vdss
# [9] = Solubility of compound in water using crystalline form of sample; assay type: physicochemical
# [10] = target: Prostaglandin D2 receptor 2 (Homo sapiens, UniProt Q9Y5Y4); test: Displacement of [3H]PGD2 from full-length recombinant human CRTH2 receptor expressed in CHOK1 cell membranes measured after 120 mins by scintillation counting method; parameters: species or system CHO-K1
# [11] = Clearance in Beagle dog at 0.5 mg/kg, iv administered as 15 mins infusion or 1 mg/kg, po administered via gavage by LC-MS/MS analysis; assay type: ADME, organism-based, Canis lupus familiaris; details: in vivo
# [12] = target: Prostaglandin E2 receptor EP1 subtype (Homo sapiens, UniProt P34995); test: Displacement of [3H]prostaglandin E2 from full-length recombinant human EP1 receptor expressed in HEK293 cell membranes measured after 60 mins by scintillation counting method
# [13] = Protein binding in pooled human plasma assessed as unbound fraction incubated for 6 hrs by LC-MS/MS analysis based equilibrium dialysis method; assay type: ADME, cell-free
# [14] = target: T1, Prostaglandin F2-alpha receptor (Mus musculus, UniProt P43117); test: Antagonist activity at FPR in mouse NIH3T3 cells assessed as inhibition of PGF2alpha-induced cytokine induced neutrophil attracting chemokine production measured after 24 hrs by Bio-Rad assay; assay type: cell-based
# [15] = Oral bioavailability in Balb/c mouse at 3 mg/kg administered via gavage by LC-MS/MS analysis; assay type: ADME, organism-based; details: in vivo
# [16] = Oral bioavailability in Wistar rat at 1 to 3 mg/kg administered via gavage using EtOH/PEG400/H2O 10/40/50 formulation by LC-MS/MS analysis; assay type: ADME, organism-based; details: in vivo, dose 1-3 mg/kg
# [17] = Drug metabolism in rat hepatocytes assessed as formation of hydroxylated and ring-opened pyrrolidine derivative at 1 uM measured after 1 to 4 hrs by LC-MS/MS analysis; assay type: ADME, cell-based, Hepatocyte; details: time 1-4 hrs
# [18] = Terminal half life in Balb/c mouse at 1 mg/kg, iv administered as bolus dose by LC-MS/MS analysis; assay type: ADME, organism-based; details: in vivo, read-out: beta t1/2 (converted)
# [19] = target: Prostaglandin E2 receptor EP4 subtype (Homo sapiens, UniProt P35408); test: Displacement of [3H]prostaglandin E2 from full-length recombinant human EP4 receptor expressed in HEK293 cell membranes measured after 120 mins by scintillation counting method
# [20] = Clearance in Wistar rat at 1 mg/kg, iv administered as bolus dose or 3 mg/kg, po administered via gavage by LC-MS/MS analysis; assay type: ADME, organism-based; details: in vivo
# Cytochrome P450 2C8 = Cytochrome P450 2C8 (Homo sapiens, UniProt P10632); test: Inhibition of CYP2C8 in human liver microsomes using amodiaquine as substrate incubated for 15 mins in presence of NADPH generating system by LC-MS/MS analysis; assay type: ADME
# [21] = target: Prostaglandin D2 receptor (Homo sapiens, UniProt Q13258); test: Displacement of [3H]PGD2 from full-length recombinant human DP1 receptor expressed in Chem-1 cell membranes measured after 120 mins by scintillation counting method
# [22] = Oral bioavailability in Wistar rat at 3 mg/kg administered via gavage by LC-MS/MS analysis; assay type: ADME, organism-based; details: in vivo
# Cytochrome P450 3A4 = Cytochrome P450 3A4 (Homo sapiens, UniProt P08684); test: Inhibition of CYP3A4 in human liver microsomes using midazolam as substrate incubated for 10 mins in presence of NADPH generating system by LC-MS/MS analysis
# [23] = Volume of distribution at steady state in Beagle dog at 0.5 mg/kg, iv administered as 15 mins infusion or 1 mg/kg, po administered via gavage by LC-MS/MS analysis; assay type: ADME, organism-based, Canis lupus familiaris; details: in vivo, read-out: Vdss
# [24] = Maximum oral bioavailability in human hepatocytes based well stirred liver model at 1 uM measured after 2 to 90 mins by LC-MS/MS analysis; assay type: ADME, Hepatocyte; details: time 2-90 min, read-out: Fmax
# Thromboxane A2 receptor = Thromboxane A2 receptor (Homo sapiens, UniProt P21731); test: Antagonist activity at recombinant full-length human TP receptor expressed in HEK293 cells assessed as inhibition of U-44069-induced response measured after 30 mins by TR-FRET assay; assay type: cell-based
# [25] = Lipophilicity, log D of compound at pH 7.5 by HPLC analysis; details: buffer
# [26] = Toxicity in Wistar rat up to 300 mg/kg/day, po administered for 14 days; assay type: organism-based; details: in vivo, 336 h, time 14 day
# Cytochrome P450 1A2 = Cytochrome P450 1A2 (Homo sapiens, UniProt P05177); test: Inhibition of CYP1A2 in human liver microsomes using phenacetin as substrate incubated for 15 mins in presence of NADPH generating system by LC-MS/MS analysis; assay type: ADME
# [27] = target: Prostaglandin E2 receptor EP2 subtype (Homo sapiens, UniProt P43116); test: Displacement of [3H]prostaglandin E2 from full-length recombinant human EP2 receptor expressed in HEK293 cell membranes measured after 120 mins by scintillation counting method
# [28] = Drug metabolism in human hepatocytes assessed as oxidation at the pyrrolidine ring at 1 uM measured after 1 to 4 hrs by LC-MS/MS analysis; assay type: ADME, cell-based, Hepatocyte; details: time 1-4 hrs
# [29] = Drug metabolism in rat hepatocytes assessed as oxidation at the pyrrolidine ring at 1 uM measured after 1 to 4 hrs by LC-MS/MS analysis; assay type: ADME, cell-based, Hepatocyte; details: time 1-4 hrs
# [30] = Maximum oral bioavailability in dog hepatocytes based well stirred liver model at 1 uM measured after 2 to 90 mins by LC-MS/MS analysis; assay type: ADME, Canis lupus familiaris, Hepatocyte; details: time 2-90 min, read-out: Fmax
# [31] = target: T1, Prostaglandin F2-alpha receptor; test: Antagonist activity at FPR in mouse NIH3T3 cells assessed as inhibition of PGF2alpha-induced MCP1 production measured after 24 hrs by Bio-Rad assay; assay type: cell-based
# [32] = Oral bioavailability in Beagle dog at 1 mg/kg administered via gavage by LC-MS/MS analysis; assay type: ADME, organism-based, Canis lupus familiaris; details: in vivo
# Prostacyclin receptor = Prostacyclin receptor (Homo sapiens, UniProt P43119); test: Displacement of [3H]PGD2 from full-length recombinant human IP receptor expressed in HEK293 cell membranes measured after 60 mins by scintillation counting method
# Chain of Prostacyclin receptor (P43119 whole entry): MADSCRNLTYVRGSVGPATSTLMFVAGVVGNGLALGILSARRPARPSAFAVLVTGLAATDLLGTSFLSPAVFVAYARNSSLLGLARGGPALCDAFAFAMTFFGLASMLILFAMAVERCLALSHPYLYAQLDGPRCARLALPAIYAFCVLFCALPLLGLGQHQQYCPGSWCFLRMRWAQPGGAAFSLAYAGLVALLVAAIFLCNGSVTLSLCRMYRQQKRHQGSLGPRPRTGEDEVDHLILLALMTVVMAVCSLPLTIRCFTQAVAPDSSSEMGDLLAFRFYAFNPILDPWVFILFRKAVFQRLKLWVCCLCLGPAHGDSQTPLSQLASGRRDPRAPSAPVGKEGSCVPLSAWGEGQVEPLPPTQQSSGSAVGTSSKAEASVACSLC
# T1 sequence (P43117 whole entry): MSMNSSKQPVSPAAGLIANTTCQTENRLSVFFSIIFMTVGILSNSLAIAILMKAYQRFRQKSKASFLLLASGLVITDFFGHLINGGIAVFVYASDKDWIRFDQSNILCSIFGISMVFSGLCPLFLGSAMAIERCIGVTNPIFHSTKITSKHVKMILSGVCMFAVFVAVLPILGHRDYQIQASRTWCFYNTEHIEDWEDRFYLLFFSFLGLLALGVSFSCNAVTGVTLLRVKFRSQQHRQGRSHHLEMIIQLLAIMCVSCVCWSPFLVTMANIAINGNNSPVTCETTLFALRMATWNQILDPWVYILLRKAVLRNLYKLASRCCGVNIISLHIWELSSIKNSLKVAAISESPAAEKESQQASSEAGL
# Chain of Cytochrome P450 1A2 (P05177 whole entry): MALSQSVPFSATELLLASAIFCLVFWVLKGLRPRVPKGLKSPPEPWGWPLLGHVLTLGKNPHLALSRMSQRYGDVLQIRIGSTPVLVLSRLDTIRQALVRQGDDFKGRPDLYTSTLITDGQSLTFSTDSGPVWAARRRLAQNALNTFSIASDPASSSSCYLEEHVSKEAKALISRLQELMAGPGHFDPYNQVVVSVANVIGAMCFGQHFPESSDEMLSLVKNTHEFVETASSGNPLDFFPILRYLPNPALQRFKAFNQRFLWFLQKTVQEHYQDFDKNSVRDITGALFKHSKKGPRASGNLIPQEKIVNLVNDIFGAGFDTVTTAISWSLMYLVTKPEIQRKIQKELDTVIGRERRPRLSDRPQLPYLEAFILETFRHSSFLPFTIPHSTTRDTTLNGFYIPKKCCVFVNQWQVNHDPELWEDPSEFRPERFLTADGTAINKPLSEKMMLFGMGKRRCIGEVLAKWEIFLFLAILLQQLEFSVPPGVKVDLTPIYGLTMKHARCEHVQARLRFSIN
# Chain of Cytochrome P450 3A4 (P08684 whole entry, the tested form may be a part): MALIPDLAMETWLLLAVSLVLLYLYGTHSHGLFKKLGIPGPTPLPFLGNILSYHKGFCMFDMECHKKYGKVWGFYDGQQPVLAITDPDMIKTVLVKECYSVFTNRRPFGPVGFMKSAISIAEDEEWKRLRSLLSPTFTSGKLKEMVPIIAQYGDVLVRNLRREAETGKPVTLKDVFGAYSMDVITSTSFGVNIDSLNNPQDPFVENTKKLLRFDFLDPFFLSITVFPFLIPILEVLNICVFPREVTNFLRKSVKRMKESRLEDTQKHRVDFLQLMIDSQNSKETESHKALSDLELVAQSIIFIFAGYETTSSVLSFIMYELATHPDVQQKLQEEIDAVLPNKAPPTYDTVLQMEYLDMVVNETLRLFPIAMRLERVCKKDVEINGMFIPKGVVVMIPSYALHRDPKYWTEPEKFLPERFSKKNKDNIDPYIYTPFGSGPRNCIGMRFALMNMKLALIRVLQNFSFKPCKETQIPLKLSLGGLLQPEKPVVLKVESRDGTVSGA
# Chain of Prostaglandin D2 receptor (Q13258 whole entry): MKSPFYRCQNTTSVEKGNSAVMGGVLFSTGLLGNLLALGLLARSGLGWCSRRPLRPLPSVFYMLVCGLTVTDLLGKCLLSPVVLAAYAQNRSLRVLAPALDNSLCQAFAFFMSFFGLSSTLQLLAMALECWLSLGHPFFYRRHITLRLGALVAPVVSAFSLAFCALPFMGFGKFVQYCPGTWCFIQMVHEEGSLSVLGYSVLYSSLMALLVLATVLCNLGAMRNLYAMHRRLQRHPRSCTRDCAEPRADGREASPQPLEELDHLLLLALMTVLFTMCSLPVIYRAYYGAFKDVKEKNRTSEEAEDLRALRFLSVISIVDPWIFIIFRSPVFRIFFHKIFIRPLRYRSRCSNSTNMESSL
# Chain of Cytochrome P450 2C8 (P10632 whole entry): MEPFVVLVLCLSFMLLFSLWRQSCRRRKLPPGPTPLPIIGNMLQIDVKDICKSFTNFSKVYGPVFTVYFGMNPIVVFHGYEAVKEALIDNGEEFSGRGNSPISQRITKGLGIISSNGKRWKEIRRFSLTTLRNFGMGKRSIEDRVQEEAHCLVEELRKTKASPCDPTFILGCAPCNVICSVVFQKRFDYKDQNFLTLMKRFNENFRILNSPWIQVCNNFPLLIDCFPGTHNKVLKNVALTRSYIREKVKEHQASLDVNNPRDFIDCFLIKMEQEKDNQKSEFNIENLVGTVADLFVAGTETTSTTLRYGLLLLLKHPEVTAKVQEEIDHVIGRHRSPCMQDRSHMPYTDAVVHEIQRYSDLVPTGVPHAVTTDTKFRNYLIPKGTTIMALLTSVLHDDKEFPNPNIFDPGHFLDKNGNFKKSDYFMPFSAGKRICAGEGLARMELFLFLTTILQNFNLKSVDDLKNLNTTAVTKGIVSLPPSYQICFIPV
# Chain of Prostaglandin E2 receptor EP4 subtype (P35408 whole entry): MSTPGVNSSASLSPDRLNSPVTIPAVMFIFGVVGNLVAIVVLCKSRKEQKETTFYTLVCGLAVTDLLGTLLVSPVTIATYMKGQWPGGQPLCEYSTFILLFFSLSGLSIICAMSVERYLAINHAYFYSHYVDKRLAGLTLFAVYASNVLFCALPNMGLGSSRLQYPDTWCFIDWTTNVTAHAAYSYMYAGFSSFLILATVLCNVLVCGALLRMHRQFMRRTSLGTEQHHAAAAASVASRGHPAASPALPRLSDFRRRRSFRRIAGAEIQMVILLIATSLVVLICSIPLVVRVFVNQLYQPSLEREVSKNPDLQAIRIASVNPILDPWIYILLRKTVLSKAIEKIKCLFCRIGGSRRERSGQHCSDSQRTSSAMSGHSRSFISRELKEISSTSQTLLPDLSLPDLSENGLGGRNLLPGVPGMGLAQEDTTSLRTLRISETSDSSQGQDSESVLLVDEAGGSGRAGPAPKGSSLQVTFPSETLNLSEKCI
# Chain of Prostaglandin F2-alpha receptor (Rattus norvegicus, UniProt P43118) (P43118 whole entry): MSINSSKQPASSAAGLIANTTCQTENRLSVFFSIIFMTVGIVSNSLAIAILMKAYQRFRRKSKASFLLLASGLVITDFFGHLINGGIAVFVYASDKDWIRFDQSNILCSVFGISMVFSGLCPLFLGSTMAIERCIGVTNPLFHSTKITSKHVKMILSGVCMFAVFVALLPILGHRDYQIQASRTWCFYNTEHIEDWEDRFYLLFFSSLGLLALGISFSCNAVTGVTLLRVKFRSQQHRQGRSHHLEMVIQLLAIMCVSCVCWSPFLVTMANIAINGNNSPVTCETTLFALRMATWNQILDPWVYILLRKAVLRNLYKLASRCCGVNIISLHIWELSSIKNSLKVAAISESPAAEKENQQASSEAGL
# Chain of Prostaglandin D2 receptor 2 (Q9Y5Y4 whole entry, the tested form may be a part): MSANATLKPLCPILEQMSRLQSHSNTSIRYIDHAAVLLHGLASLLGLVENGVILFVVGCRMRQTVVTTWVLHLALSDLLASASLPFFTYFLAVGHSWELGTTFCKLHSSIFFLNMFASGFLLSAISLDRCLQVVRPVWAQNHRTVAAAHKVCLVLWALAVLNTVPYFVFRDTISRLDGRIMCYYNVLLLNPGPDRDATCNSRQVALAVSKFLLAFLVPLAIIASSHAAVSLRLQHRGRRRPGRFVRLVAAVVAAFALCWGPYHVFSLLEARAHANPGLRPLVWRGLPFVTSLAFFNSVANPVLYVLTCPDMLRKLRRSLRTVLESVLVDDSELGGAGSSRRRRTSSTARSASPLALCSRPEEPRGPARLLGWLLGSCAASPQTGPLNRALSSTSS
# Chain of Thromboxane A2 receptor (P21731 whole entry): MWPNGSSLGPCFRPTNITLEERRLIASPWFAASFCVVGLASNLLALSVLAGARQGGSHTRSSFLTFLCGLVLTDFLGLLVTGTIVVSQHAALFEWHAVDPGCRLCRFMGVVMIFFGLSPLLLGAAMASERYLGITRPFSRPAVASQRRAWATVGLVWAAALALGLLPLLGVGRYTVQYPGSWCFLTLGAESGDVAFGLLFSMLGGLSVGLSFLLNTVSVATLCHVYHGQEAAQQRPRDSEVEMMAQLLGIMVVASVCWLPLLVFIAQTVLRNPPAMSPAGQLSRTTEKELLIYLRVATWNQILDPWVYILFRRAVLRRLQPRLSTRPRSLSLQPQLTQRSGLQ
# Chain of Prostaglandin E2 receptor EP1 subtype (P34995 whole entry): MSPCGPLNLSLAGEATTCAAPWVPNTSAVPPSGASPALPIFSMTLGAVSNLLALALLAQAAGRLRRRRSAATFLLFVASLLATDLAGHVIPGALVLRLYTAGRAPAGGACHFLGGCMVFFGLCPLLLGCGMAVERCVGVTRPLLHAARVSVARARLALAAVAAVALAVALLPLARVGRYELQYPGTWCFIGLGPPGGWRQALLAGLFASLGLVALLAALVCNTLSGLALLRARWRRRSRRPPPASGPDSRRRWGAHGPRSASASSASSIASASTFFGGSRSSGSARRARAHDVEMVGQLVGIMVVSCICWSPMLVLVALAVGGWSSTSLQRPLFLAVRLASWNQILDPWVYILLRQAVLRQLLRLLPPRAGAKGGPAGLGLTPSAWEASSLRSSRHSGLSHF
structure (smiles),measurement,setting,value
Cc1c(N2CCCC2)nc2ccc(Br)cc2c1C(=O)NC[C@H](CCC(=O)O)c1ccccc1Cl [BAY-6672],Activity,[1],Non-Toxic
same,half-life,[2],3.8 h
same,IC50,[3],0.011 µM
same,Papp at 2 h,[4],26.7 ×10⁻⁶ cm/s
same,solubility,[5],440 µg/mL
same,fraction unbound at 6 h,[6],< 0.01
same,Drug metabolism,[7],Metabolite_Detected
same,Vd,[8],2 L/kg
same,solubility,[9],< 1 µg/mL
same,IC50,[10],> 10 µM
same,clearance,[11],13.3 mL/min/kg
same,IC50,[12],> 10 µM
same,fraction unbound at 6 h,[13],< 0.01
same,IC50,[14],0.012 µM
same,bioavailability,[15],94%
same,bioavailability,[16],91%
same,Drug metabolism,[17],Metabolite_Detected
same,half-life,[18],3.4 h
same,IC50,[19],> 9.4 µM
same,clearance,[20],11.7 mL/min/kg
same,IC50,Cytochrome P450 2C8,> 20 µM
same,IC50,[21],> 10 µM
same,bioavailability,[22],91%
same,IC50,Cytochrome P450 3A4,> 20 µM
same,Vd,[23],1.8 L/kg
same,Fh at 1 µM,[24],66%
same,IC50,Thromboxane A2 receptor,2.2 µM
same,logD,[25],2.3
same,Activity,[26],Non-Toxic
same,IC50,Cytochrome P450 1A2,> 20 µM
same,IC50,[27],> 10 µM
same,Drug metabolism,[28],Metabolite_Detected
same,Drug metabolism,[29],Metabolite_Detected
same,Fh at 1 µM,[30],18%
same,IC50,[31],0.018 µM
same,bioavailability,[32],45%
same,IC50,Prostacyclin receptor,> 10 µM
